Experimental data: patent US12601742B2, “Methods and materials for treating endometrial cancer by assessing combinations of mutations and expression levels” (Mayo Foundation for Medical Education and Research, priority 2020, dated 2026)

Experiments:
ARK-2 cell line = experiment: MTT cell viability assay and synergy assessment, ARK-2; format: cell-based; settings: constant ratio, 72 hours; for combinatory effect of carboplatin with GSK2141795 (cell viability): ARK-2, simultaneous exposure
Method: (§1) HEC-1B (Type I) and ARK-2 (Type II), platinum-insensitive EC cell lines, were used in this study. Both cell lines were cultured in DMEM (Dulbecco's Modified Eagle's Medium) media containing 10% FBS, 100 μg/mL streptomycin, 100 units/mL penicillin, and 2 mM L-glutamine. Cells were maintained in incubator at 37° C. in an atmosphere containing 5% CO2. Three thousand cells/well were seeded in triplicate in 96-well plates and cells were treated with increasing concentrations of panobinostat, GSK2141795, and carboplatin for 72 hours, respectively. CellTiter 96® Aqueous One Solution Cell Proliferation Assay was performed according to the manual to assess the half maximum inhibitory concentration (IC50). Constant ratio studies were carried out to investigate the combinatory effect of carboplatin with panobinostat and GSK2141795 in both HEC-1B and ARK-2 cell lines.

HEC-1B cell line = experiment: MTT cell viability assay and synergy assessment, HEC-1B; format: cell-based; settings: constant ratio, 72 hours; for combinatory effect of carboplatin with GSK2141795 (cell viability): simultaneous exposure
Method: as §1

N.N.O=C([O-])C1(C(=O)[O-])CCC1.[Pt+2] [carboplatin]
synergism: combinatory effect of carboplatin with GSK2141795 (cell viability) (ARK-2 cell line) | combinatory effect of carboplatin with panobinostat (cell viability) (ARK-2 cell line; ARK-2, varying concentrations) | combinatory effect of carboplatin with GSK2141795 (cell viability) (HEC-1B cell line) | combinatory effect of carboplatin with panobinostat (cell viability) (HEC-1B cell line; varying concentrations)

Cn1ncc(Cl)c1-c1cc(C(=O)N[C@H](CN)Cc2ccc(F)c(F)c2)oc1Cl [GSK2141795]
synergism: combinatory effect of carboplatin with GSK2141795 (cell viability) (ARK-2 cell line) | combinatory effect of carboplatin with GSK2141795 (cell viability) (HEC-1B cell line)
